Our source for the Ki values is ChEMBL document CHEMBL1133305, “Phenyloxazoles and phenylthiazoles as benzamide bioisosteres: synthesis and dopamine receptor binding profiles” (Bioorg Med Chem Lett, 2000).

The target of assay [1] is D(1A) dopamine receptor (Bos taurus, UniProt Q95136). As to the kind of experiment: In vitro displacement of [3H]- SCH 23390 from the dopamine receptor D1 of bovine striatal membrane. For orientation: In a radioligand displacement assay an active substance lowers the binding of a labelled ligand.
D(1A) dopamine receptor, sequence (Q95136 whole entry): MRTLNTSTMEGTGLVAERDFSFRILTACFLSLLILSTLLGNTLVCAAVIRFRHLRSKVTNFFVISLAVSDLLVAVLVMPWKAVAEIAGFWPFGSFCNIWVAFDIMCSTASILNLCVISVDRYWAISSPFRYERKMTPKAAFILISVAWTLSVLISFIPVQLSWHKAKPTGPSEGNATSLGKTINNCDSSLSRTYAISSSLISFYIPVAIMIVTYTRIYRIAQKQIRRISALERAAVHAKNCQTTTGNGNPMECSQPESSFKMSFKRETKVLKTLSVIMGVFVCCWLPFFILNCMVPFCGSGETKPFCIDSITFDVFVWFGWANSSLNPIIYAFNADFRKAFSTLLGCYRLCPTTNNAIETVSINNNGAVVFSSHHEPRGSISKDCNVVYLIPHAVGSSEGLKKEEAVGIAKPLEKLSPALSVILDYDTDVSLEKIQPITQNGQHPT
Assay [2] deals with T1, D(2) dopamine receptor (Homo sapiens, UniProt P14416). Put plainly: In vitro displacement of [3H]spiperone from the recombinant human dopamine receptor D2 short form expressed in CHO cells. In kind it is cell-based.
T1 sequence (P14416 whole entry): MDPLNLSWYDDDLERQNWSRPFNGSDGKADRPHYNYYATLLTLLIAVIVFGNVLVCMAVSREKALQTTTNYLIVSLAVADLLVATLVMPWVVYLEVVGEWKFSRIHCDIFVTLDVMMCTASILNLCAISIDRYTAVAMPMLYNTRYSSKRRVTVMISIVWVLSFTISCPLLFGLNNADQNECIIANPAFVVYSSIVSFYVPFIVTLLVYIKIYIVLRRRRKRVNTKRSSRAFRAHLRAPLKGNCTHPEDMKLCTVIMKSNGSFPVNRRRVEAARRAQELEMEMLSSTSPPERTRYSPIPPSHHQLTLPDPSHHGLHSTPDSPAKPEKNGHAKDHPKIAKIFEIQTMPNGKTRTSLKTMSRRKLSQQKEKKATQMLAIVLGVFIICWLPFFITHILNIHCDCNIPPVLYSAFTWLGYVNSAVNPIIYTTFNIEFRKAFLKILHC
The target of assay [3] is T1, D(2) dopamine receptor. As to the kind of experiment: In vitro displacement of [3H]spiperone from the recombinant human dopamine receptor D2L stably expressed in CHO cells. In kind it is cell-based.
Assay [4] addresses D(3) dopamine receptor (Homo sapiens, UniProt P35462). Put plainly: In vitro displacement of [3H]spiperone from the cloned human dopamine receptor D3 stably expressed in CHO cells. The assay is classed as cell-based.
Assay [5] deals with T2, D(4) dopamine receptor (Homo sapiens, UniProt P21917).
T2 sequence (P21917 whole entry): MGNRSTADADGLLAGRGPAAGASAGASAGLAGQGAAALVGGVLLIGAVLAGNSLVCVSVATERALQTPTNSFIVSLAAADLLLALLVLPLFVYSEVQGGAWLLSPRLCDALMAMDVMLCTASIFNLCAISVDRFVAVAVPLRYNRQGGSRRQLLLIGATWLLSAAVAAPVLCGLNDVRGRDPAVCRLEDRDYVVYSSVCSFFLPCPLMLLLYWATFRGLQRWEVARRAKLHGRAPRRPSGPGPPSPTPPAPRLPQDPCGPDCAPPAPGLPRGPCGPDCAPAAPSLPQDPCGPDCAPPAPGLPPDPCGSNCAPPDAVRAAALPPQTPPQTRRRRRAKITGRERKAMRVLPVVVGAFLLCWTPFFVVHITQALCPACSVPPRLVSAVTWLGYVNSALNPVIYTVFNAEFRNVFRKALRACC
As to the kind of experiment: In vitro displacement of [3H]spiperone from the recombinant human dopamine receptor D4 expressed in CHO cells. In kind it is cell-based.

As a reminder, the Ki is a dissociation constant, usually derived from enzyme kinetics or from competition with a known ligand.

Structures are written as SMILES.

D(3) dopamine receptor, sequence (P35462 whole entry): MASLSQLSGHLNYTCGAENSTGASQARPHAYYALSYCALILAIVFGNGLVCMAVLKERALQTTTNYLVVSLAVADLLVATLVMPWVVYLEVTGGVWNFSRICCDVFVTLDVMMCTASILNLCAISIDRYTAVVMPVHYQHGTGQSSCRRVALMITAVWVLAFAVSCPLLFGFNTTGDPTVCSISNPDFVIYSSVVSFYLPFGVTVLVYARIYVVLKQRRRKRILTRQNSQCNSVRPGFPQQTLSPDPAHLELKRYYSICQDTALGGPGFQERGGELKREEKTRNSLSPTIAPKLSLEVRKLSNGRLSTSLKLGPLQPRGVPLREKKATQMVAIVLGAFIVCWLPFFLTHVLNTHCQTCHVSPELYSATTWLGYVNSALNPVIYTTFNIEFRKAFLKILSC

For the compound `COc1ccc(Br)cc1-c1nc(CNC[C@@H]2CCN(Cc3ccccc3)C2)cs1` [listing 1 of 2 here], the Ki amounted to 4950 nM in assay [1]; 280 nM in assay [2]; 420 nM in assay [3]; 115 nM in assay [4]; 170 nM in assay [5].

Turning to `c1ccc(CN2CCN(Cc3csc(-c4ccccc4)n3)CC2)cc1`, the Ki in assay [1] came out at 9200 nM; in assay [2], 19500 nM; in assay [3], 28000 nM; in assay [4], 5250 nM; in assay [5], 590 nM.

Regarding `c1ccc(CN2CC[C@@H](CNCc3csc(-c4ccccc4)n3)C2)cc1` (stereo in doubt; 4q), the Ki in assay [1] was found to be 8850 nM; in assay [2] it was 5050 nM; in assay [3], 7900 nM; in assay [4] it was 660 nM; in assay [5] it was 390 nM.

For the compound `COc1ccc(Br)cc1-c1nc(CN2CCN(c3ccccc3)CC2)cs1`, the Ki in assay [1] worked out at 1250 nM; in assay [2], 440 nM; in assay [3], 610 nM; in assay [4], 1190 nM; in assay [5], 590 nM.

Turning to `c1ccc(CN2CCC(NCc3csc(-c4ccccc4)n3)CC2)cc1`, the Ki stood at 6800 nM in assay [1]; 13500 nM in assay [2]; 23000 nM in assay [3]; 2300 nM in assay [4]; 53 nM in assay [5].

On to `COc1ccc(Br)cc1-c1ncc(CNC[C@@H]2CCN(Cc3ccccc3)C2)[nH]1`, for which the inhibition constant (Ki) in assay [1] stood at 8900 nM; in assay [2] it was 2750 nM; in assay [3], 6250 nM; in assay [4], 1300 nM; in assay [5], 1110 nM.

On to `COc1ccc(Br)cc1-c1nc(CN[C@@H]2CCN(Cc3ccccc3)C2)co1` [listing 1 of 2 here], for which the Ki in assay [1] was 8000 nM; in assay [2], 2000 nM; in assay [3] it was 2450 nM; in assay [4], 1700 nM; in assay [5] it was 39 nM.

Regarding `c1ccc(-c2nc(CN3CCN(c4ccccc4)CC3)co2)cc1`, the Ki amounted to 11500 nM in assay [1]; 1750 nM in assay [2]; 3000 nM in assay [3]; 3950 nM in assay [4]; 250 nM in assay [5].

Take `COc1ccc(Br)cc1-c1nc(CN(C)C[C@@H]2CCN(Cc3ccccc3)C2)co1`: the Ki in assay [1] was 5450 nM; in assay [2], 3250 nM; in assay [3], 3800 nM; in assay [4], 1200 nM; in assay [5], 650 nM.

Turning to `COc1ccc(Br)cc1-c1nc(CNC2CCN(Cc3ccccc3)CC2)cs1`, the Ki in assay [1] was 4500 nM; in assay [2] it was 105 nM; in assay [3] it was 195 nM; in assay [4], 205 nM; in assay [5], 400 nM.

Consider `COc1ccc(Br)cc1-c1nc(CN[C@@H]2CCN(Cc3ccccc3)C2)co1` [listing 2 of 2 here], for which the Ki was found to be 16000 nM in assay [1]; 6600 nM in assay [2]; 8250 nM in assay [3]; 1850 nM in assay [4]; 510 nM in assay [5].

Regarding `COc1ccc(Br)cc1-c1nc(CNCC[C@@H]2CCN(Cc3ccccc3)C2)co1`, the Ki in assay [1] came out at 8950 nM; in assay [2], 1100 nM; in assay [3], 1070 nM; in assay [4] it was 120 nM; in assay [5] it was 170 nM.

Turning to `COc1ccc(Br)cc1-c1nc(CNC[C@@H]2CCN(Cc3ccccc3)C2)co1` [listing 1 of 2 here], the inhibition constant (Ki) was found to be 3500 nM in assay [1]; 245 nM in assay [2]; 320 nM in assay [3]; 65 nM in assay [4]; 11 nM in assay [5].

On to `COc1c(-c2nc(CNC[C@@H]3CCN(Cc4ccccc4)C3)co2)cc(Br)c2ccccc12`, for which the Ki in assay [1] is 100000 nM; in assay [2], 17500 nM; in assay [3], 45500 nM; in assay [4], 5850 nM; in assay [5] it was 15500 nM.

Consider `COc1ccc(Br)cc1-c1nc(CNCCC2CCN(Cc3ccccc3)C2)co1` (stereo not given), for which the Ki in assay [1] came to 6600 nM; in assay [2], 310 nM; in assay [3], 510 nM; in assay [4], 75 nM; in assay [5] it was 150 nM.

For the compound `COc1ccc(Br)cc1-c1nc(CNC[C@@H]2CCN(Cc3ccccc3)C2)cs1` [listing 2 of 2 here], the Ki in assay [1] worked out at 4000 nM; in assay [2], 92 nM; in assay [3], 185 nM; in assay [4], 220 nM; in assay [5], 150 nM.

In the case of `COc1ccc(Br)cc1-c1nc(CNC2CCN(Cc3ccccc3)CC2)co1`, the Ki was determined as 12500 nM in assay [1]; 630 nM in assay [2]; 940 nM in assay [3]; 580 nM in assay [4]; 390 nM in assay [5].

In the case of `c1ccc(CN2CCN(Cc3coc(-c4ccccc4)n3)CC2)cc1`, the Ki worked out at 72000 nM in assay [1]; 21500 nM in assay [2]; 27500 nM in assay [3]; 8400 nM in assay [4]; 1450 nM in assay [5].

Turning to `COc1ccc(Br)cc1-c1nc(CN2CCN(Cc3ccccc3)CC2)cs1`, the inhibition constant (Ki) in assay [1] stood at 10500 nM; in assay [2], 85 nM; in assay [3], 210 nM; in assay [4] it was 640 nM; in assay [5] it was 370 nM.

`COc1ccc(Br)cc1-c1nc(CNC[C@@H]2CCN(Cc3ccccc3)C2)co1` [listing 2 of 2 here]: the Ki in assay [1] turned out to be 6750 nM; in assay [2], 210 nM; in assay [3], 510 nM; in assay [4] it was 83 nM; in assay [5] it was 20 nM.

For `Oc1ccc(Br)cc1-c1nc(CN2CCN(c3ccccc3)CC2)co1`, the Ki in assay [1] stood at 17500 nM; in assay [2], 4400 nM; in assay [3], 6650 nM; in assay [4] it was 7600 nM; in assay [5], 580 nM.

With `COc1ccc(Br)cc1-c1nc(CN2CCN(Cc3ccccc3)CC2)co1`, the Ki in assay [1] amounted to 15500 nM; in assay [2], 790 nM; in assay [3], 1500 nM; in assay [4], 1050 nM; in assay [5], 710 nM.

As for `c1ccc(-c2nc(CN3CCN(c4ccccc4)CC3)cs2)cc1`, the Ki in assay [1] came out at 19500 nM; in assay [2] it was 1060 nM; in assay [3] it was 2300 nM; in assay [4] it was 2050 nM; in assay [5] it was 450 nM.

Turning to `COc1ccc(Br)cc1-c1nc(CN2CCN(c3ccccc3)CC2)co1`, the Ki in assay [1] amounted to 4850 nM; in assay [2] it was 330 nM; in assay [3] it was 690 nM; in assay [4], 660 nM; in assay [5], 370 nM.

Consider `c1ccc(CN2CC[C@@H](CNCc3csc(-c4ccccc4)n3)C2)cc1` (stereo in doubt), for which the Ki stood at 13500 nM in assay [1]; 6400 nM in assay [2]; 7950 nM in assay [3]; 880 nM in assay [4]; 390 nM in assay [5] (cho).

Take `c1ccc(CN2CCC(NCc3coc(-c4ccccc4)n3)CC2)cc1`: the Ki was determined as 30000 nM in assay [1]; 8650 nM in assay [2]; 14000 nM in assay [3]; 6100 nM in assay [4]; 350 nM in assay [5].
